The source of these data is PMC6743422, “Preclinical disposition of MGS0274 besylate, a prodrug of a potent group II metabotropic glutamate receptor agonist MGS0008 for the treatment of schizophrenia” (Pharmacology Research & Perspectives, 2019).

The structures appear in SMILES notation. Some results are limits rather than exact numbers.

Series [1] has as its system mGlu2/3 receptors. The settings on record: cited from earlier work.
The subject of series [2] is monkey cryopreserved hepatocytes. As to the kind of experiment: In vitro metabolite profiling in monkey cryopreserved hepatocytes. In kind it is in vitro ADME. The note with it: monkey hepatocytes. The protocol: (§1) Rat, monkey, or human cryopreserved hepatocytes in Leivovitz L‐15 medium at 0.5 million cells/mL were incubated at 37°C for 1 hour with [^14C]MGS0274 besylate at 10 μmol/L. The reaction was terminated by adding 10% w/v trichloroacetic acid solution, and the resultant mixture was centrifuged. Aliquots of the supernatant were subjected to bioanalysis using high‐performance liquid chromatography equipped with radiochemical flow detection (RI‐HPLC) (see Table S1‐B). Aliquots of the supernatant from unlabeled incubation samples and authentic standards were also injected into a liquid chromatography‐mass spectrometry (LC‐MS) system under the same chromatographic conditions to compare their chromatographic retention times and mass spectral data (see Table S1‐B).

Series [3] deals with CYP3A (Homo sapiens, UniProt P08684). Nature of the series: CYP inhibition in human liver microsomes, CYP3A. The note with it: probe testosterone (6β-hydroxytestosterone formation), human liver microsomes 0.1 mg/mL, metabolite 6β-Hydroxytestosterone. The format is in vitro ADME. How it is done: The inhibition potential of MGS0008 (0.3‐100 µmol/L) and MGS0274 besylate (0.03‐10 µmol/L) on the activity of human cytochrome P450 (CYP) isoforms (CYP1A2, 2B6, 2C8, 2C9, 2C19, 2D6, and 3A) was investigated using probe substrates for each CYP isoform and human liver microsomes, of which the final protein concentration was set at 0.1 mg/mL (see Table S2). The assay was started by spiking the reaction mixture, which had been pre‐incubated at 37°C for 5 minutes, with NADP^+. After incubation for 5 to 10 minutes, the reaction was terminated by adding acetonitrile containing an internal standard for each probe substrate, and the resultant mixture was centrifuged. Aliquots of the supernatant were subjected to bioanalysis using LC‐MS/MS (see Table S1‐D).
CYP3A, sequence (P08684 2-503): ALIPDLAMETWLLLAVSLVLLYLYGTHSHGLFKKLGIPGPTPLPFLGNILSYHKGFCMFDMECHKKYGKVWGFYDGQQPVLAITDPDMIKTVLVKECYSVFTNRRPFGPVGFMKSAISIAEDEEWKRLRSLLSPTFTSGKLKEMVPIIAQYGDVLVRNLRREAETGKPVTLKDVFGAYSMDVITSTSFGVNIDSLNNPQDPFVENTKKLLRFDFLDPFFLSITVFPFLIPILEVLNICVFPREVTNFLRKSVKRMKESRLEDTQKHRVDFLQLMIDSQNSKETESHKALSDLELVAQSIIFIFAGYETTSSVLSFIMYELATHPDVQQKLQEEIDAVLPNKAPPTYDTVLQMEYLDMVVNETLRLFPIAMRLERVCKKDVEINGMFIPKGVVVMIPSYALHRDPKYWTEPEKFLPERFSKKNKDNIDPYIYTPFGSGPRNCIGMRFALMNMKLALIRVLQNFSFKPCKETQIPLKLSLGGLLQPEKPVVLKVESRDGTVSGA
The final protein concentration in the reaction mixture was set at 0.1 mg/mL. The values in parentheses represent the final concentrations of compounds added in each reaction mixture. […]
Background: Microsomes from liver hold many membrane-bound enzymes, among them those of drug oxidation.

The test system of series [4] is rat cryopreserved hepatocytes. As to the kind of experiment: In vitro metabolite profiling in rat cryopreserved hepatocytes. The format is in vitro ADME. The settings on record: rat hepatocytes. How it is done: as §1
Series [5] concerns human cryopreserved hepatocytes. As to the kind of experiment: In vitro metabolite profiling in human cryopreserved hepatocytes. In kind it is in vitro ADME. The note with it: human hepatocytes. How it is done: as §1

A word on the IC50: it is the midpoint of a concentration-inhibition curve. Consider `N[C@]1(C(=O)O)[C@H]2[C@@H](C[C@@H]1F)[C@@H]2C(=O)O` [MGS0008, (1S,2S,3S,5R,6S)‐2‐amino‐3‐fluorobicyclo[3.1.0]hexane‐2,6‐dicarboxylic acid], for which the “agonist activity for mGlu2/3 receptors” value in series [1] is on record as “potent agonist activity”. Further, the “further metabolism of MGS0008 in hepatocytes” value in series [2] was “no metabolites”; in series [4] it was “no metabolites”; in series [5] it was “not metabolized”. Besides, in series [3], the IC50 is more than 100 µM.
